Active and inactive are the calls of the source.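 How the source made its calls: active means at a dose no more than twice the top valid tested dose, the fitted curve drops below -35% activity change; inactive means the rest, rising-direction activity included.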

The nature of one test: NIH3T3 cell viability loss, ATP content – CellTiter-Glo luminescence, cherry-pick, set 2, cytotoxicity control for HSP40 inhibitor project, dose response (AID 624265).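 Further: cells exposed to compound for 48 hours before the ATP read; 0% = median neutral control signal and -100% = no luminescence left.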 The conditions noted are these: NIH3T3 viability, CellTiter-Glo ATP luminescence; at 5.6 µM (top of the series). Background: Cellular ATP, detected with luciferase, serves as a proxy for viable cell number.
Consider `CC(C)C(=O)NC(c1cccc([N+](=O)[O-])c1)c1ccc2cccnc2c1O` (configuration not stated), for which the activity change, negative = toxicity is -21% (inactive).

Still in this test, the particulars now being: NIH3T3 viability, CellTiter-Glo ATP luminescence; at 50 µM (top of the series).
As to `Cc1ccc(NC2(c3nnnn3-c3c(C)cccc3C)CCCCC2)cc1`, the activity change, negative = toxicity is 0.981% (inactive).

Consider `COc1ccc(/C=N/Nc2cc(C)nc(-n3nc(C)cc3C)n2)cc1`, for which the activity change, negative = toxicity was -9.51% (inactive). On the same count and under the same terms, with `C[n+]1c2cc(N)ccc2cc2ccc(N)cc21` the figure was 14.2% (inactive); with `CN(c1ccccc1)c1nc(N2CCCC2)nc(-n2ccnc2)n1`, 11.2% (inactive). The same measure, in the same setting: with `COc1cc([N+](=O)[O-])cc(/C=N/NC(=O)c2cncc(Br)c2)c1O` the figure was -13.4% (inactive); with `CCC(NC(=S)NCc1ccc(F)cc1)c1ccc(C(C)C)cc1` (configuration not stated), 41.2% (inactive). As for `O=C(NCCC1=CCCCC1)c1c(O)nc2sccn2c1=O`, the activity change, negative = toxicity was 15.1% (inactive). On the same count and under the same terms, with `CCC(C)Sc1cccc(-c2nc3ccccn3c2NCc2ccccc2)c1` (configuration not stated) the figure was -15.9% (inactive); with `Cc1ccc(Sc2cc(C)nc(-c3ccccn3)n2)cc1`, 11.7% (inactive); with `COc1ccc(O)c(C(=O)CC(=O)c2ccccc2C)c1`, 0.039% (inactive). On to `Oc1ccccc1-c1cc(-c2ccc3c(c2)OCCO3)n[nH]1`, for which the activity change, negative = toxicity was -2.25% (inactive). The same measure, in the same setting: with `O=S(=O)(Nc1ccccc1)c1ccc(Oc2ncc(C(F)(F)F)cc2Cl)cc1` the figure was 13% (inactive); with `CCOC(=O)c1cnc(-n2nc(C)cc2C)nc1NC1CCCC1`, 37.9% (inactive); with `OCCN(CCO)c1cc2c3ccccc3ccc2c2ccccc12`, -14.3% (inactive). On to `NC(=Nc1nc(-c2ccccn2)cc2ccccc12)c1ccccn1`, for which the activity change, negative = toxicity is -27.1% (inactive).

Take `CCOC(=O)c1ccc(N2C(=O)CC(N3CCC(O)(c4ccc(Cl)cc4)CC3)C2=O)cc1` (configuration not stated): the activity change, negative = toxicity was -0.824% (inactive). Regarding `O=c1c(O)c(-c2ccccc2)oc2ccccc12`, the activity change, negative = toxicity is -0.823% (inactive). Take `Cc1ccc2oc(-c3ccccc3)c(C(=O)O)c(=O)c2c1`: the activity change, negative = toxicity is -13.9% (inactive). Regarding `Cc1cccc(NC(=S)NC(C)CCc2ccccc2)c1` (configuration not stated), the activity change, negative = toxicity is 12.9% (inactive). As to `CC(C)CSc1n[nH]c(=S)s1`, the activity change, negative = toxicity is 9% (inactive). On to `CCCc1cc(C(N)=O)c(NC(=O)c2cc(C)on2)s1`, for which the activity change, negative = toxicity is 12.3% (inactive).

Take `COc1cccc(CC(=O)Nc2ccc3nc(C)sc3c2)c1`: the activity change, negative = toxicity was 14.6% (inactive). The same measure, in the same setting: with `O=C(NCC1CC1(Cl)Cl)Nc1ccc(Cl)c(Cl)c1` (configuration not stated) the figure was 17.4% (inactive); with `Cc1ccoc1C(=O)Nc1cccc(Oc2ccccc2)c1`, 9.85% (inactive); with `CCN(CC)C(=O)CSc1ncnc2sc(-c3ccccc3)cc12`, 9.41% (inactive). On the same count and under the same terms, then `C=CCNC(=S)N1CCC(Cc2ccccc2)CC1`, with 7.32% (inactive).

In the case of `O=c1c2ccccc2c(-c2ccc(O)cc2)nn1-c1cccc(C(F)(F)F)c1`, the activity change, negative = toxicity is -18.6% (inactive). On the same count and under the same terms, with `CCCCC(=O)NC(c1ccco1)c1cc(Cl)c2cccnc2c1O` (configuration not stated) the figure was -22.9% (inactive); with `Cc1ccc(-c2c3c(nc4sc(C(N)=O)c(N)c24)CCCC3)o1`, 14.4% (inactive); with `O=c1c2ccccc2nc(-c2cccc(Cl)c2)n1O`, 4.83% (inactive). The same measure, in the same setting: then `CC(C)=CCc1c(O)ccc(C(=O)Cc2ccccc2)c1O`, with -2.45% (inactive). Same read-out and setting: with `O=C(c1ccccc1)c1coc2c1C(=O)c1ccccc1C2=O` the figure was -10.3% (inactive).

Consider `Cc1cc(C(=O)COC(=O)Cc2n[nH]c(=O)c3ccccc23)c(C)n1-c1cccc(C(F)(F)F)c1`, for which the activity change, negative = toxicity was 24.5% (inactive).

Take `CCCCn1c(=O)c(C(=O)NCc2ccncc2)c(O)c2ccccc21`: the activity change, negative = toxicity was 25% (inactive).

Consider `FC(F)(F)c1nc(SCc2ccc(Cl)cc2Cl)n[nH]1`, for which the activity change, negative = toxicity is -4.01% (inactive). `CCOC(=O)N1C(=O)C2(CCCCC2)N(c2ccccc2Cl)C1=S`: the activity change, negative = toxicity was -8.13% (inactive). Same read-out and setting: with `Cc1ccc(NC(=O)CN(C)C(=O)c2cccnc2Nc2cccc(C(F)(F)F)c2)cc1` the figure was -0.151% (inactive).

Take `O=[N+]([O-])c1cccc(C=NNc2ccc3ccccc3n2)c1O`: the activity change, negative = toxicity is -29.6% (inactive). The same measure, in the same setting: with `Cc1c(C(=O)O)cccc1-c1ccc(/C=N/Nc2ccc(Br)cc2)o1` the figure was -0.158% (inactive); with `CC1CCN(c2ccc3c(c2)S(=O)(=O)c2ccccc2C3=O)CC1`, -1.31% (inactive); with `CCn1c2ccc(C)cc2c2nc3cc(C(=O)O)ccc3nc21`, -4.25% (inactive). Same read-out and setting: then `Nc1nc(-c2ccccc2)c(-c2ccc([N+](=O)[O-])cc2)s1`, with 15.2% (inactive); and `O=C(N/N=C/c1cc(Cl)cc([N+](=O)[O-])c1O)c1ccccc1NS(=O)(=O)c1cccs1`, with 2.81% (inactive). As to `COc1ccc(Sc2nc(-c3ccccn3)ncc2OC)cc1`, the activity change, negative = toxicity was 5.95% (inactive). As to `Cc1cccc(N2CCN(C(=O)C3COc4ccccc4O3)CC2)c1C` (configuration not stated), the activity change, negative = toxicity is -5.05% (inactive). The same measure, in the same setting: then `Cc1cc(NS(=O)(=O)c2ccc(C3CCCCC3)cc2)no1`, with -14.2% (inactive); and `O=C(CSc1ccc(-c2ccccn2)nn1)c1ccccc1`, with -10.1% (inactive). As for `C=CCn1c(-c2cc(-c3ccc(C)cc3)nc3ccccc23)n[nH]c1=S`, the activity change, negative = toxicity was 15.5% (inactive). On the same count and under the same terms, then `Nc1nc2sc3c(c2c(=O)s1)CCCC3`, with 13.7% (inactive); and `CCCS(=O)(=O)c1c(S(=O)(=O)CCC)c2c(C)cccn2c1C(=O)N/N=C/c1cc(O)cc(O)c1`, with -15.8% (inactive).

Consider `Cc1ccccc1C(=O)NNC(=S)NC(=O)c1ccc(Cl)cc1Cl`, for which the activity change, negative = toxicity is -5.68% (inactive). The same measure, in the same setting: then `Cc1ccc(C(=O)C(SC(C)(C)C)n2cncn2)cc1` (configuration not stated), with 10.4% (inactive).

As to `c1ccc(Cn2cc(-c3cccnc3)cn2)cc1`, the activity change, negative = toxicity is -0.362% (inactive). With `O=C(O)CSc1nc(-c2ccc(Cl)cc2)nc2c1oc1ccccc12`, the activity change, negative = toxicity is -3.22% (inactive). On the same count and under the same terms, with `COc1cc(/C=N/O)cc(Br)c1OCc1cccc(Cl)c1` the figure was 3.56% (inactive); with `CC(C)(C)C(=O)C(Oc1ccc(Cl)cc1)n1cncn1` (configuration not stated), 9.05% (inactive). Same read-out and setting: then `O=C(Nc1cc(Oc2ccc(Cl)cc2)cc([N+](=O)[O-])c1)c1ccco1`, with -2.9% (inactive); and `O/N=C(\c1ccc(Cl)cc1)c1cc2ccccc2o1`, with -9.72% (inactive). On the same count and under the same terms, with `CCCCCCn1c(=O)c(C(=O)Nc2ncccc2C)c(O)c2ccccc21` the figure was 6.84% (inactive). Take `CCCOc1ccc(S(=O)(=O)n2cc(F)c(=O)[nH]c2=O)cc1`: the activity change, negative = toxicity was 10.7% (inactive). Still for that read-out and setting: then `CCCC(C)Sc1nc2c([nH]1)c(=S)n(C)c(=O)n2C` (configuration not stated), with 0.769% (inactive).

Turning to `COc1ccc2[nH]c(=O)c(CN(Cc3cccnc3)C(=O)Nc3ccccc3)cc2c1`, the activity change, negative = toxicity is -11.7% (inactive). As for `O=C1Nc2c(Br)cccc2C1=O`, the activity change, negative = toxicity is -1.42% (inactive). As to `Cc1ccc(C)c(/C=C/C(=O)c2ccccc(=O)c2O)c1`, the activity change, negative = toxicity is -4.58% (inactive). Consider `COc1cc(NS(=O)(=O)c2ccc(C)cc2)c2ncccc2c1`, for which the activity change, negative = toxicity is 5.44% (inactive). On the same count and under the same terms, then `O=c1c2ccccc2nc(-c2ccc(-c3ccccc3)cc2)n1-c1ccncc1`, with 4% (inactive). Same read-out and setting: with `Cc1nc(-c2ccccn2)nc(N(C)c2ccccc2)c1Cl` the figure was 9.36% (inactive). As for `CCCCc1ccc(-n2c(Cc3cccs3)n[nH]c2=S)cc1`, the activity change, negative = toxicity was -7.72% (inactive). On the same count and under the same terms, then `Nc1cc2c3ccccc3ccc2c2ccccc12`, with -1.86% (inactive). Regarding `Cc1ccc(Sc2ccc(NC(=O)CCl)cc2)cc1C`, the activity change, negative = toxicity is 2.95% (inactive). For the molecule `CCn1c(CNc2ccc(Cl)cc2)nnc1SCc1ccc(Cl)cc1`, the activity change, negative = toxicity was 12.6% (inactive). With `O=C(c1ccccc1)N1C(=O)C(c2ccccc2)Oc2ccccc21` (configuration not stated), the activity change, negative = toxicity is 5.11% (inactive).

With `COc1ccc(C(=O)On2c(-c3ccc(Br)cc3)nc3ccccc3c2=O)cc1`, the activity change, negative = toxicity is 8% (inactive).

For `CCc1ccc(CN(C)C(=O)c2cc(COc3cccc(C(F)(F)F)c3)on2)nc1`, the activity change, negative = toxicity was 5.53% (inactive).

`CC(NC(=S)NC1CCC(C(C)(C)C)CC1)c1ccccc1` (configuration not stated): the activity change, negative = toxicity is 3.27% (inactive). For the molecule `O=C(Oc1c(Cl)cc(Cl)c2cccnc12)c1cccs1`, the activity change, negative = toxicity is 19% (inactive). On the same count and under the same terms, then `CC(C)(C)C(O)C(Cc1ccccc1Cl)n1cncn1` (configuration not stated), with -1.54% (inactive). Still for that read-out and setting: then `CC12CCC(O)CC1=CCC1C2CCC2(C)C3=NN=CC3CC12` (configuration not stated), with 6.4% (inactive); and `O=C(O)c1c(NC(=O)N2CCCC2)sc2c1CCCC2`, with 19.6% (inactive); and `CCCCCCCc1ccc(-c2ccc(O)cc2)nc1`, with 25.5% (inactive).

For `c1ccc(-c2ccc(SCc3cccnc3)nn2)nc1`, the activity change, negative = toxicity is -5.74% (inactive).

(Values after PubChem BioAssay AID624265 (Broad Institute, 2012).)
